In brackets after ≈: the same amount, converted by molar mass. Like-named read-outs stand apart in the source and are kept apart here.
Experiments:
[1] = tested on: MRSA (S. aureus MW2) biofilm; test: Biofilm viability assay on solid support (MW2); assay type: cell-based, Staphylococcus aureus; settings: S. aureus MW2, 10 μg/ml, 24 h in PBS
S. aureus MW2 = test: Minimal inhibitory concentration (MIC) assay, broth microdilution; assay type: cell-based, Staphylococcus aureus; settings: Staphylococcus aureus
Description: 300 Synthesis of peptides
302 Piscataway, NJ, USA).
305 Minimal inhibitory concentration (MIC) assay
We made serial dilutions of 10×
We determined the MIC using OD600
Accordingly, we added 150 mM NaCl,
319 established protocol (5).

[2] = tested on: S. aureus MW2 24 h established biofilm; settings: 24 h treatment
Description: 346 plated onto TSA plates, and incubated plates at 37°C overnight. The next day, we counted the
347 viable bacterial colonies.
(§1) We used TSB medium containing
(§2) 356 bacteria with water as the positive control, while TSB media with sterile water served as the
(§3) 357 negative control. After incubation, we carefully removed the TSB medium and washed the wells
(§4) 358 with PBS (Gibco, MD, USA) to remove loosely attached planktonic cells. We quantified the
(§5) 359 biomass by staining the biofilms with crystal violet following an established protocol and
(§6) 360 quantitated the concentration of peptide that inhibits 50% of biofilm formation (MBIC50)(8). We
(§7) 361 measured the live cell count of the biofilms using XTT dye [2,3-bis(2-methyloxy-4-nitro-5-
362 sulfophenyl)-2H-tertazolium-5-carboxanilide] (ATCC, VA, USA). We calculated the percentage
363 of biofilm growth by normalizing to biofilm growth in wells containing bacteria without peptide
366 Disruption of S. aureus MW2 established biofilms
367 We evaluated the ability of the citropin 1.1-derived peptides to disrupt established biofilms
368 following an established protocol with modifications (5). We prepared exponential cultures of S.
369 aureus MW2 (adjusted to 1 × 10^6 CFU/ml) in TSB medium (supplemented with 0.2% glucose)
370 from overnight grown cultures. We added 100 µl of bacterial culture to flat-bottomed 96-well
371 polystyrene microtiter plates (Cat no. 3595, Corning, NY, USA). We then incubated the plates at
372 37°C for 24 hours in static conditions to allow biofilm formation. After incubation, we carefully
373 pipetted out the TSB medium and washed the wells with PBS (Gibco, MD, USA) to remove
374 loosely attached planktonic cells. We treated the established biofilms in each well with 10 µl of
375 serially diluted 10× peptide solution, followed by the addition of 90 μl TSB medium
376 (supplemented with 0.2% glucose). We incubated the plates for another 24 h at 37°C before
377 processing biomass and live-cell contents. We calculated the concentration of peptide that disrupts
378 50% of established biofilms (MBEC50).

[3] = tested on: S. aureus MW2 biofilm formation; settings: 24 hours
Description: 349 Prevention of S. aureus MW2 biofilm formation
350 We evaluated the ability of the citropin 1.1-derived peptides to inhibit biofilm formation
351 following an established protocol with modifications (5). In short, we prepared exponential
352 cultures of S. aureus MW2 (adjusted to OD600 = 0.01) in TSB medium (supplemented with 0.2%
353 glucose) from overnight cultures. We added 90 µl of the bacterial culture to 10 µl of serially diluted
354 10× peptide solution in flat-bottomed 96-well polystyrene microtiter plates (Cat no. Corning 3595,
as §1, §2, §3, §4, §5, §6, §7
362 sulfophenyl)-2H-tertazolium-5-carboxanilide] (ATCC, VA, USA).

CN[C@H](CC(C)C)C(=O)N[C@H]1C(=O)N[C@@H](CC(N)=O)C(=O)N[C@H]2C(=O)N[C@H]3C(=O)N[C@H](C(=O)N[C@H](C(=O)O)c4cc(O)cc(O)c4-c4cc3ccc4O)[C@H](O)c3ccc(c(Cl)c3)Oc3cc2cc(c3O[C@@H]2O[C@H](CO)[C@@H](O)[C@H](O)[C@H]2O[C@H]2C[C@](C)(N)[C@H](O)[C@H](C)O2)Oc2ccc(cc2Cl)[C@H]1O [Vancomycin, reference compound]
Bacterial load of 24 hour established biofilm on solid membrane ([1]; replicate 1): 160000000 | Bacterial load of 24 hour established biofilm on solid membrane ([1]; replicate 2): 18000000 | Bacterial load of 24 hour established biofilm on solid membrane ([1]; replicate 3): 28000000 | Bacterial load of 24 hour established biofilm on solid membrane ([1]; replicate 4): 40000000 | Bacterial load of 24 hour established biofilm on solid membrane ([1]; replicate 5): 20000000 | Bacterial load of 24 hour established biofilm on solid membrane ([1]; replicate 6): 60000000 | MIC (S. aureus MW2; MW2, 18 h, read-out: MIC SA): ≤ 0.125 µg/mL | MIC (S. aureus MW2; read-out: MIC + MgSO4 (1 mM), S. aureus MW2, TSB + 1 mM MgSO4): ≤ 1 µg/mL | MIC (S. aureus MW2; read-out: MIC + human serum (10%), S. aureus MW2, TSB + 10% human serum): ≤ 1 µg/mL | MIC (S. aureus MW2; S. aureus MW2, TSB + 8 μM ZnSO4, read-out: MIC + ZnSO4 (8 μM)): ≤ 1 µg/mL | MIC (S. aureus MW2; S. aureus MW2, TSB + 2.5 mM CaCl2, read-out: MIC + CaCl2 (2.5 mM)): ≤ 1 µg/mL | MIC (S. aureus MW2; S. aureus MW2, TSB + 150 mM NaCl, read-out: MIC + NaCl (150 mM)): ≤ 1 µg/mL | MIC (S. aureus MW2; S. aureus MW2, TSB + 5% human serum, read-out: MIC + human serum (5%)): ≤ 1 µg/mL | MIC (S. aureus MW2; S. aureus MW2, TSB, read-out: MIC, Medium only): 1 µg/mL (≈ 0.69 µM) | Established biofilm, biomass (crystal violet), percentage of untreated ([2]; 4 μg/ml, replicate 1): 149.693 | Established biofilm, live-cell viability (XTT), percentage of untreated ([2]; 4 μg/ml, replicate 1): 100.129 | Established biofilm, biomass (crystal violet), percentage of untreated ([2]; 4 μg/ml, replicate 2): 84.8543 | Established biofilm, live-cell viability (XTT), percentage of untreated ([2]; 4 μg/ml, replicate 2): 106.559 | Established biofilm, biomass (crystal violet), percentage of untreated ([2]; 4 μg/ml, replicate 3): 49.5143 | Established biofilm, live-cell viability (XTT), percentage of untreated ([2]; 4 μg/ml, replicate 3): 106.192 | Established biofilm, biomass (crystal violet), percentage of untreated ([2]; 8 μg/ml, replicate 1): 88.3691 | Established biofilm, live-cell viability (XTT), percentage of untreated ([2]; 8 μg/ml, replicate 1): 102.865 | Established biofilm, live-cell viability (XTT), percentage of untreated ([2]; 8 μg/ml, replicate 2): 105.547 | Established biofilm, biomass (crystal violet), percentage of untreated ([2]; 8 μg/ml, replicate 3): 88.3308 | Established biofilm, live-cell viability (XTT), percentage of untreated ([2]; 8 μg/ml, replicate 3): 106.722 | Established biofilm, biomass (crystal violet), percentage of untreated ([2]; 16 μg/ml, replicate 1): 138.471 | Established biofilm, live-cell viability (XTT), percentage of untreated ([2]; 16 μg/ml, replicate 1): 64.3129 | Established biofilm, biomass (crystal violet), percentage of untreated ([2]; 16 μg/ml, replicate 2): 273.773 | Established biofilm, live-cell viability (XTT), percentage of untreated ([2]; 16 μg/ml, replicate 2): 78.7072 | Established biofilm, biomass (crystal violet), percentage of untreated ([2]; 16 μg/ml, replicate 3): 273.774 | Established biofilm, live-cell viability (XTT), percentage of untreated ([2]; 16 μg/ml, replicate 3): 47.5625 | Established biofilm, biomass (crystal violet), percentage of untreated ([2]; 32 μg/ml, replicate 1): 98.1851 | Established biofilm, live-cell viability (XTT), percentage of untreated ([2]; 32 μg/ml, replicate 1): 0.7061 | Established biofilm, biomass (crystal violet), percentage of untreated ([2]; 32 μg/ml, replicate 2): 78.1697 | Established biofilm, live-cell viability (XTT), percentage of untreated ([2]; 32 μg/ml, replicate 2): 1.691 | Established biofilm, biomass (crystal violet), percentage of untreated ([2]; 32 μg/ml, replicate 3): 90.9509 | Established biofilm, live-cell viability (XTT), percentage of untreated ([2]; 32 μg/ml, replicate 3): 6.084 | Biofilm formation, biomass (crystal violet), percentage of untreated ([3]; 4 μg/ml, replicate 1): 8.955 | Biofilm formation, live-cell viability (XTT), percentage of untreated ([3]; 4 μg/ml, replicate 1): -0.6369 | Biofilm formation, biomass (crystal violet), percentage of untreated ([3]; 4 μg/ml, replicate 2): 10.0268 | Biofilm formation, live-cell viability (XTT), percentage of untreated ([3]; 4 μg/ml, replicate 2): -0.3259 | Biofilm formation, biomass (crystal violet), percentage of untreated ([3]; 4 μg/ml, replicate 3): 18.3626 | Biofilm formation, live-cell viability (XTT), percentage of untreated ([3]; 4 μg/ml, replicate 3): -0.3777 | Biofilm formation, biomass (crystal violet), percentage of untreated ([3]; 8 μg/ml, replicate 1): 8.8836 | Biofilm formation, live-cell viability (XTT), percentage of untreated ([3]; 8 μg/ml, replicate 1): -0.674 | Biofilm formation, biomass (crystal violet), percentage of untreated ([3]; 8 μg/ml, replicate 2): 11.1462 | Biofilm formation, live-cell viability (XTT), percentage of untreated ([3]; 8 μg/ml, replicate 2): -0.4592 | Biofilm formation, biomass (crystal violet), percentage of untreated ([3]; 8 μg/ml, replicate 3): 16.9574 | Biofilm formation, live-cell viability (XTT), percentage of untreated ([3]; 8 μg/ml, replicate 3): -0.4518 | Biofilm formation, biomass (crystal violet), percentage of untreated ([3]; 16 μg/ml, replicate 1): 9.955 | Biofilm formation, live-cell viability (XTT), percentage of untreated ([3]; 16 μg/ml, replicate 1): -0.5851 | Biofilm formation, biomass (crystal violet), percentage of untreated ([3]; 16 μg/ml, replicate 2): 11.9559 | Biofilm formation, live-cell viability (XTT), percentage of untreated ([3]; 16 μg/ml, replicate 2): -0.437 | Biofilm formation, biomass (crystal violet), percentage of untreated ([3]; 16 μg/ml, replicate 3): 14.6234 | Biofilm formation, live-cell viability (XTT), percentage of untreated ([3]; 16 μg/ml, replicate 3): -0.4148 | Biofilm formation, biomass (crystal violet), percentage of untreated ([3]; 32 μg/ml, replicate 1): 10.1935 | Biofilm formation, live-cell viability (XTT), percentage of untreated ([3]; 32 μg/ml, replicate 1): -0.4962 | Biofilm formation, biomass (crystal violet), percentage of untreated ([3]; 32 μg/ml, replicate 2): 10.384 | Biofilm formation, live-cell viability (XTT), percentage of untreated ([3]; 32 μg/ml, replicate 2): -0.5555 | Biofilm formation, biomass (crystal violet), percentage of untreated ([3]; 32 μg/ml, replicate 3): 13.4802 | Biofilm formation, live-cell viability (XTT), percentage of untreated ([3]; 32 μg/ml, replicate 3): -0.4073

Source: publication PMC12165799, “Antimicrobial peptide developed with machine learning sequence optimization targets drug resistant Staphylococcus aureus in mice” (The Journal of Clinical Investigation, 2025)
